Reference: ChEMBL document CHEMBL1201862, “PubChem BioAssay data set” (2004)
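These data come from cells grown in 96-well plates and exposed to compound for 48 hours at five concentrations. GI50 = concentration required for 50% inhibition of growth.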 Active and inactive are the calls of the source. No stated cut-off is given here; in the data, active = GI50 up to about 1.1 µM and inactive = higher.

Tests used:
Test in all cases: growth of human tumour cells (NCI), 48 h
[1] = tested on: SNB-75
[2] = tested on: T47D
[3] = tested on: NCI-H522
[4] = tested on: SK-MEL-28
[5] = tested on: SW-620
[6] = tested on: MDA-MB-435
[7] = tested on: M14
[8] = tested on: HCT-116
[9] = tested on: A498
[10] = tested on: MCF7
[11] = tested on: HCC 2998
[12] = tested on: HOP-62
[13] = tested on: Hs-578T
[14] = tested on: CAKI-1
[15] = tested on: RXF 393
[16] = tested on: RPMI-8226
[17] = tested on: KM12
[18] = tested on: SNB-19
[19] = tested on: SK-MEL-5
[20] = tested on: MDA-MB-231
[21] = tested on: MDA-N
[22] = tested on: U-251
[23] = tested on: UACC-257
[24] = tested on: Malme-3M
[25] = tested on: HT-29
[26] = tested on: SF-295
[27] = tested on: EKVX
[28] = tested on: 786-0
[29] = tested on: OVCAR-5
[30] = tested on: UACC-62
[31] = tested on: SK-MEL-2
[32] = tested on: NCI/ADR-RES
[33] = tested on: DU-145
[34] = tested on: CCRF-CEM
[35] = tested on: PC-3
[36] = tested on: SF-268
[37] = tested on: OVCAR-8
[38] = tested on: SR
[39] = tested on: BT-549
[40] = tested on: LOX IMVI
[41] = tested on: OVCAR-4
[42] = tested on: SN12C
[43] = tested on: HCT-15
[44] = tested on: A549
[45] = tested on: UO-31
[46] = tested on: K562
[47] = tested on: HOP-92
[48] = tested on: IGROV-1
[49] = tested on: NCI-H23
[50] = tested on: SF-539
[51] = tested on: COLO 205
[52] = tested on: OVCAR-3
[53] = tested on: TK-10
[54] = tested on: ACHN
[55] = tested on: HL-60

CC1=NN(C(=O)CC(=O)Nc2cccc(C)c2)C(=O)C1/N=N/c1ccc(C(=O)O)cc1 (stereo not given)
GI50 [1]: 69.2 µM (inactive)
GI50 [2]: > 100 µM (inactive)
GI50 [3]: > 100 µM (inactive)
GI50 [4]: > 100 µM (inactive)
GI50 [5]: > 100 µM (inactive)
GI50 [6]: > 100 µM (inactive)
GI50 [7]: > 100 µM (inactive)
GI50 [8]: > 100 µM (inactive)
GI50 [9]: > 100 µM (inactive)
GI50 [10]: > 100 µM (inactive)
GI50 [11]: > 100 µM (inactive)
GI50 [12]: > 100 µM (inactive)
GI50 [13]: > 100 µM (inactive)
GI50 [14]: > 100 µM (inactive)
GI50 [15]: > 100 µM (inactive)
GI50 [16]: > 100 µM (inactive)
GI50 [17]: > 100 µM (inactive)
GI50 [18]: > 100 µM (inactive)
GI50 [19]: > 100 µM (inactive)
GI50 [20]: > 100 µM (inactive)
GI50 [21]: > 100 µM (inactive)
GI50 [22]: > 100 µM (inactive)
GI50 [23]: > 100 µM (inactive)
GI50 [24]: > 100 µM (inactive)
GI50 [25]: > 100 µM (inactive)
GI50 [26]: > 100 µM (inactive)
GI50 [27]: > 100 µM (inactive)
GI50 [28]: > 100 µM (inactive)
GI50 [29]: > 100 µM (inactive)
GI50 [30]: > 100 µM (inactive)
GI50 [31]: > 100 µM (inactive)
GI50 [32]: > 100 µM (inactive)
GI50 [33]: > 100 µM (inactive)
GI50 [34]: > 100 µM (inactive)
GI50 [35]: > 100 µM (inactive)
GI50 [36]: > 100 µM (inactive)
GI50 [37]: > 100 µM (inactive)
GI50 [38]: 37.9 µM (inactive)
GI50 [39]: > 100 µM (inactive)
GI50 [40]: > 100 µM (inactive)
GI50 [41]: > 100 µM (inactive)
GI50 [42]: > 100 µM (inactive)
GI50 [43]: > 100 µM
GI50 [44]: > 100 µM (inactive)
GI50 [45]: 64.4 µM (inactive)
GI50 [46]: > 100 µM (inactive)
GI50 [47]: 34.9 µM (inactive)
GI50 [48]: > 100 µM (inactive)
GI50 [49]: > 100 µM (inactive)
GI50 [50]: > 100 µM (inactive)
GI50 [51]: > 100 µM (inactive)
GI50 [52]: > 100 µM (inactive)
GI50 [53]: > 100 µM (inactive)
GI50 [54]: > 100 µM (inactive)
GI50 [55]: > 100 µM (inactive)
